Test results published in paper PMC7397659, “Pseudonajide peptide derived from snake venom alters cell envelope integrity interfering on biofilm formation in Staphylococcus epidermidis” (BMC Microbiology, 2020).
Where no end group is shown, it is not given here.

Experiments:
[1] = tested on: S. epidermidis ATCC 35984; assay: Antibiofilm formation test, crystal violet protocol; assay type: cell-based, Staphylococcus epidermidis; settings: 100 μM peptide, 24 h exposure, crystal violet OD570, at least 3 biological replicates
Experimental: S. epidermidis ATCC 35984 and Pseudomonas aeruginosa PAO1 were used to test the antimicrobial and antibiofilm activities of the peptides. Both bacteria were grown in blood agar plates and cultured overnight at 37 °C. Cell suspensions were prepared in a solution of 0.9% NaCl and adjusted to OD600 for a final concentration of ~ 10^8 cells/ml. For microscopy analysis, pre-inoculum was made in tryptic soy broth (TSB, Merck), and adjusted to OD600 for the same concentration of cells for all tests.
Serial dilution of peptides was performed in 96-well plates, going from 100 to 3.12 μM. Cell suspensions and TSB were added to the plates and a control was made with dimethyl sulfoxide (DMSO). Antibiofilm formation tests were performed with an adapted protocol, in which it is described that 24 h of incubation is sufficient to determinate antibiofilm activity. The OD600 was measured, then biofilm content accessed using the crystal violet protocol. Biofilm eradication test was performed supplementing 24 h pre-formed biofilm with a new culture broth, containing or not 25 μM of peptide. The plates were incubated for further 24 h followed by crystal violet protocol. The antimicrobial activity of pseudonajide was analyzed using a concentration of 25 μM after 1, 2, 4, and 24 h incubation. After measuring the optical density, the supernatant was collected and diluted. […] CFUs were counted after 24 h incubation. […]

MCF7 (breast cancer) = assay: Cytotoxicity test, ImPACcell platform; assay type: cell-based, human; settings: 25 μM, 24 h
Experimental: (§1) Cytotoxicity tests were performed on the ImPACcell robotic platform (BIOSIT, Université de Rennes 1). This featured high-throughput multiparameter image analysis, with both high-content screening and high-content analysis. The platform is equipped with an Olympus microscope and Compix SimplePCI software; a Zeiss Axio Imager M1 microscope with a Zeiss camera and AxioVision software; and imaging systems including an ArrayScan VTI Cellomics reader (Thermo Fisher), Hamilton STARlet and NIMBUS workstations, and a Scienion spotter. Cells used in the test were obtained from an already-existing collection available at BIOSIT (https://biosit.univ-rennes1.fr/impaccell-imagerie-pour-analyse-du-contenu-cellulaire). For the tests, seven different cell lines were used: human hepatocellular carcinoma (HuH7); colorectal adenocarcinoma (Caco-2); breast adenocarcinoma (MDA-MB231); colorectal carcinoma (HCT116); prostatic adenocarcinoma (PC3); lung carcinoma (NCL-H727); and breast cancer (MCF7). The residual cell percentages reported correspond to viable cells compared to the average viable cells in the DMSO control. Viability of 100% represents no cytotoxicity or inhibition of cell growth, while under 25–30% is considered cytotoxic and 0% represents acute cytotoxicity.

[2] = tested on: HCT116 (colorectal carcinoma); assay: Cytotoxicity test, ImPACcell platform; assay type: cell-based, human; settings: 25 μM, 24 h
Experimental: as §1

[3] = tested on: PC3 (prostatic adenocarcinoma); assay: Cytotoxicity test, ImPACcell platform; assay type: cell-based, human; settings: 25 μM, 24 h
Experimental: as §1

[4] = tested on: Caco-2 (colorectal adenocarcinoma); assay: Cytotoxicity test, ImPACcell platform; assay type: cell-based, human; settings: 25 μM, 24 h
Experimental: as §1

[5] = tested on: NCL-H727 (lung carcinoma); assay: Cytotoxicity test, ImPACcell platform; assay type: cell-based, human; settings: 25 μM, 24 h
Experimental: as §1

[6] = tested on: HuH7 (hepatocellular carcinoma); assay: Cytotoxicity test, ImPACcell platform; assay type: cell-based, human; settings: 25 μM, 24 h
Experimental: as §1

[7] = tested on: MDA-MB231 (breast adenocarcinoma); assay: Cytotoxicity test, ImPACcell platform; assay type: cell-based, human; settings: 25 μM, 24 h
Experimental: as §1

Sequence | reduction of biofilm mass [1] | live cell counts compared to control (MCF7 (breast cancer)) | live cell counts compared to control [2] | live cell counts compared to control [3] | live cell counts compared to control [4] | live cell counts compared to control [5] | live cell counts compared to control [6] | live cell counts compared to control [7]
KRFKKFFKKLK [Peptide 3] | 78% | – | – | – | – | – | – | –
KRFKKFFKKVK [Peptide 1] | 77% | – | – | – | – | – | – | –
KRFKKFFMKLK [Peptide 2] | – | no decrease in live cell counts | no decrease in live cell counts | no decrease in live cell counts | no decrease in live cell counts | no decrease in live cell counts | no decrease in live cell counts | no decrease in live cell counts
